Assay results from ChEMBL document CHEMBL1135136, “Carbonic anhydrase inhibitors. Preparation of potent sulfonamides inhibitors incorporating bile acid tails” (Bioorg Med Chem Lett, 2002).

Experiments:
[1] = target: Carbonic anhydrase 2 (Homo sapiens, UniProt P00918)
Description: Inhibitory activity against human recombinant carbonic anhydrase II (CA2)

[2] = target: T1, Carbonic anhydrase 4 (Bos taurus, UniProt Q95323)
T1 sequence (Q95323 whole entry): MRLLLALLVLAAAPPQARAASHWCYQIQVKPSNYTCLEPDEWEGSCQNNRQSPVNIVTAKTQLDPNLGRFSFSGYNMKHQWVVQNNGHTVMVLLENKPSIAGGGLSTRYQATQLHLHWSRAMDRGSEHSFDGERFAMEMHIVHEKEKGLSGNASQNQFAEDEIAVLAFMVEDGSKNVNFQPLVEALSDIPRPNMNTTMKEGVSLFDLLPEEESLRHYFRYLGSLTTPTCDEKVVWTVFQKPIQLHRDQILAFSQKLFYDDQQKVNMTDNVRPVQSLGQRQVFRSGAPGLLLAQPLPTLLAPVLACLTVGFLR
Description: Inhibitory activity against bovine carbonic anhydrase IV (CA4), obtained from bovine lung microsomes

[3] = target: Carbonic anhydrase 1 (Homo sapiens, UniProt P00915)
Sequence of Carbonic anhydrase 1 (P00915 whole entry): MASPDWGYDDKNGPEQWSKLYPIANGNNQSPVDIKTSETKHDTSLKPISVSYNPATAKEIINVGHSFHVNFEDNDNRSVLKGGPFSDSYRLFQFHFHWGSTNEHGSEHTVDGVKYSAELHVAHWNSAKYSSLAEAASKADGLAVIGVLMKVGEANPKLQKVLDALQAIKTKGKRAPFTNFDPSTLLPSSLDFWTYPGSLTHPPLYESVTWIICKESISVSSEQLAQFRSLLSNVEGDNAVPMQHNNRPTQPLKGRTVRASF
Description: Inhibitory activity against human recombinant carbonic anhydrase I (CA1)

Row | SMILES | Ki [1] | Ki [2] | Ki [3]
1 | C[C@H](CCC(=O)OCc1ccc(S(N)(=O)=O)cc1)[C@H]1CC[C@H]2[C@@H]3[C@@H](O)C[C@@H]4C[C@H](O)CC[C@]4(C)[C@H]3CC[C@]12C | 75 nM | 245 nM | 500 nM
2 | C[C@H](CCC(=O)OCCOc1ccc2nc(S(N)(=O)=O)sc2c1)[C@H]1CC[C@H]2[C@@H]3CC[C@@H]4C[C@H](O)CC[C@]4(C)[C@H]3C[C@H](O)[C@]12C | 4.1 nM | 8 nM | 37 nM
3 | C[C@H](CCC(=O)Nc1cccc(S(N)(=O)=O)c1)[C@H]1CC[C@H]2[C@@H]3[C@@H](O)C[C@@H]4C[C@H](O)CC[C@]4(C)[C@H]3CC[C@]12C | 157 nM | 480 nM | 7050 nM
4 | C[C@H](CCC(=O)/N=c1\sc(S(N)(=O)=O)nn1C)[C@H]1CC[C@H]2[C@@H]3[C@H](O)C[C@@H]4C[C@H](O)CC[C@]4(C)[C@H]3CC[C@]12C | 13 nM | 100 nM | 514 nM
5 | C[C@H](CCC(=O)NCc1ccc(S(N)(=O)=O)cc1)[C@H]1CC[C@H]2[C@@H]3[C@@H](O)C[C@@H]4C[C@H](O)CC[C@]4(C)[C@H]3CC[C@]12C | 21 nM | 40 nM | 550 nM
6 | C[C@H](CCC(=O)Oc1ccc2nc(S(N)(=O)=O)sc2c1)[C@H]1CC[C@H]2[C@@H]3CC[C@@H]4C[C@H](O)CC[C@]4(C)[C@H]3C[C@H](O)[C@]12C | 4.8 nM | 9 nM | 39 nM
7 | C[C@H](CCC(=O)NNc1ccc(S(N)(=O)=O)cc1)[C@H]1CC[C@H]2[C@@H]3C(=O)C[C@@H]4CC(=O)CC[C@]4(C)[C@H]3CC(=O)[C@]12C | 260 nM | 550 nM | 12800 nM
8 | C[C@H](CCC(=O)Nc1ccc(S(N)(=O)=O)cc1Cl)[C@H]1CC[C@H]2[C@@H]3CC[C@@H]4C[C@H](O)CC[C@]4(C)[C@H]3CC[C@]12C | 47 nM | 54 nM | 720 nM
9 | C[C@H](CCC(=O)Nc1ccc2nc(S(N)(=O)=O)sc2c1)[C@H]1CC[C@H]2[C@@H]3CC[C@@H]4C[C@H](O)CC[C@]4(C)[C@H]3CC[C@]12C | 2.8 nM | 9 nM | 48 nM
10 | C[C@H](CCC(=O)Nc1cc(Cl)c(S(N)(=O)=O)cc1S(N)(=O)=O)[C@H]1CC[C@H]2[C@@H]3[C@H](O)C[C@@H]4C[C@H](O)CC[C@]4(C)[C@H]3C[C@H](O)[C@]12C | 56 nM | 130 nM | 400 nM
11 | C[C@H](CCC(=O)NNc1ccc(S(N)(=O)=O)cc1)[C@H]1CC[C@H]2[C@@H]3[C@@H](O)C[C@@H]4C[C@H](O)CC[C@]4(C)[C@H]3CC[C@]12C | 240 nM | 615 nM | 12000 nM
12 | C[C@H](CCC(=O)Nc1cccc(S(N)(=O)=O)c1)[C@H]1CC[C@H]2[C@@H]3[C@H](O)C[C@@H]4C[C@H](O)CC[C@]4(C)[C@H]3C[C@H](O)[C@]12C | 218 nM | 1350 nM | 23000 nM

The remaining lines, values ahead:

Row | Ki [1] | Ki [2] | Ki [3] | SMILES
13 | 34 nM | 53 nM | 617 nM | C[C@H](CCC(=O)Nc1ccc(S(N)(=O)=O)cc1Br)[C@H]1CC[C@H]2[C@@H]3[C@H](O)C[C@@H]4C[C@H](O)CC[C@]4(C)[C@H]3CC[C@]12C
14 | 50 nM | 133 nM | 1280 nM | C[C@H](CCC(=O)Nc1ccc(S(N)(=O)=O)cc1F)[C@H]1CC[C@H]2[C@@H]3[C@H](O)C[C@@H]4C[C@H](O)CC[C@]4(C)[C@H]3C[C@H](O)[C@]12C
15 | 0.8 nM | 7 nM | 39 nM | C[C@H](CCC(=O)Nc1ccc2nc(S(N)(=O)=O)sc2c1)[C@H]1CC[C@H]2[C@@H]3C(=O)C[C@@H]4CC(=O)CC[C@]4(C)[C@H]3CC(=O)[C@]12C
16 | 9 nM | 46 nM | 71 nM | C[C@H](CCC(=O)Nc1cc(Cl)c(S(N)(=O)=O)cc1S(N)(=O)=O)[C@H]1CC[C@H]2[C@@H]3[C@@H](O)C[C@@H]4C[C@H](O)CC[C@]4(C)[C@H]3CC[C@]12C
17 | 11 nM | 63 nM | 240 nM | C[C@H](CCC(=O)/N=c1\sc(S(N)(=O)=O)nn1C)[C@H]1CC[C@H]2[C@@H]3CC[C@@H]4C[C@H](O)CC[C@]4(C)[C@H]3C[C@H](O)[C@]12C
18 | 6.1 nM | 12 nM | 47 nM | C[C@H](CCC(=O)Oc1ccc2nc(S(N)(=O)=O)sc2c1)[C@H]1CC[C@H]2[C@@H]3[C@H](O)C[C@@H]4C[C@H](O)CC[C@]4(C)[C@H]3CC[C@]12C
19 | 21 nM | 53 nM | 120 nM | C[C@H](CCC(=O)Nc1ccc(S(N)(=O)=O)cc1Br)[C@H]1CC[C@H]2[C@@H]3CC[C@@H]4C[C@H](O)CC[C@]4(C)[C@H]3CC[C@]12C
20 | 4 nM | 9 nM | 32 nM | C[C@H](CCC(=O)Oc1ccc2nc(S(N)(=O)=O)sc2c1)[C@H]1CC[C@H]2[C@@H]3[C@H](O)C[C@@H]4C[C@H](O)CC[C@]4(C)[C@H]3C[C@H](O)[C@]12C
21 | 11 nM | 50 nM | 77 nM | C[C@H](CCC(=O)Nc1cc(Cl)c(S(N)(=O)=O)cc1S(N)(=O)=O)[C@H]1CC[C@H]2[C@@H]3C(=O)C[C@@H]4CC(=O)CC[C@]4(C)[C@H]3CC(=O)[C@]12C
22 | 295 nM | 850 nM | 27500 nM | C[C@H](CCC(=O)NNc1ccc(S(N)(=O)=O)cc1)[C@H]1CC[C@H]2[C@@H]3[C@H](O)C[C@@H]4C[C@H](O)CC[C@]4(C)[C@H]3CC[C@]12C
23 | 10 nM | 28 nM | 210 nM | C[C@H](CCC(=O)Nc1nnc(S(N)(=O)=O)s1)[C@H]1CC[C@H]2[C@@H]3CC[C@@H]4C[C@H](O)CC[C@]4(C)[C@H]3CC[C@]12C
24 | 92 nM | 313 nM | 800 nM | C[C@H](CCC(=O)OCc1ccc(S(N)(=O)=O)cc1)[C@H]1CC[C@H]2[C@@H]3CC[C@@H]4C[C@H](O)CC[C@]4(C)[C@H]3CC[C@]12C
25 | 50 nM | 123 nM | 415 nM | C[C@H](CCC(=O)OCCc1ccc(S(N)(=O)=O)cc1)[C@H]1CC[C@H]2[C@@H]3C(=O)C[C@@H]4CC(=O)CC[C@]4(C)[C@H]3CC(=O)[C@]12C
26 | 0.6 nM | 5 nM | 30 nM | C[C@H](CCC(=O)OCCOc1ccc2nc(S(N)(=O)=O)sc2c1)[C@H]1CC[C@H]2[C@@H]3[C@@H](O)C[C@@H]4C[C@H](O)CC[C@]4(C)[C@H]3CC[C@]12C
27 | 106 nM | 350 nM | 1000 nM | C[C@H](CCC(=O)OCc1ccc(S(N)(=O)=O)cc1)[C@H]1CC[C@H]2[C@@H]3CC[C@@H]4C[C@H](O)CC[C@]4(C)[C@H]3C[C@H](O)[C@]12C
28 | 11 nM | 24 nM | 180 nM | C[C@H](CCC(=O)Nc1ccc(S(N)(=O)=O)cc1F)[C@H]1CC[C@H]2[C@@H]3[C@@H](O)C[C@@H]4C[C@H](O)CC[C@]4(C)[C@H]3CC[C@]12C
29 | 156 nM | 440 nM | 7440 nM | C[C@H](CCC(=O)Nc1cccc(S(N)(=O)=O)c1)[C@H]1CC[C@H]2[C@@H]3C(=O)C[C@@H]4CC(=O)CC[C@]4(C)[C@H]3CC(=O)[C@]12C
